What was measured:
albino rats = test: rat hindpaw thermal escape paradigm (hindpaw withdrawal test for analgesia, acute pain); assay type: in vivo; conditions: for analgesic effect of co-administration with acetaminophen compared to either compound given alone: hydroxyazapirone 5 mg/kg + acetaminophen 300 mg/kg, ip; for hindpaw thermal escape response/latency compared to vehicle (saline+PETW): n=5-8 rats per group
Excerpt: To assess the thermally evoked paw-withdrawal response, a commercially available device was used. Specifics of device construction and operation have been published previously (Dirig D M, Salami A, Rathbun M L, Ozaki G T, Yaksh T L. Characterization of variables defining hindpaw withdrawal latency evoked by radiant thermal stimuli. J Neurosci Methods. Oct. 3, 1997; 76(2):183-91). This device is comprised of a glass surface on which the rats were placed individually in Plexiglas cubicles (9×22×25 cm). The surface is maintained at 30° C. by a feedback-controlled, under-glass, forced-air heating system. The thermal nociceptive stimulus originates from a projection bulb below the glass that can be manipulated in a two-dimensional axis on ball bearing slides. This apparatus allows the stimulus to be delivered separately to each hind paw with the aid of an angled mirror mounted on the stimulus source. A timer is actuated with the light source, and escape latency is defined as the time between stimulus onset and the display of a brisk paw withdrawal (detected by photodiode motion sensors that stops the timer and terminates the stimulus; cut-off time for a non-response is 20 sec which triggers automatic termination of the stimulus). In the present study, animals are placed in test boxes for 30 min acclimation and then baseline escape latency is assessed separately for each hindpaw (left and right) at −15 min. All drugs are delivered at 0 min by the intraperitoneal (i.p.) route in a volume of 3 ml/kg. The vehicle for 6-hydroxybuspirone was 0.9% sodium chloride (Saline). For 3-hydroxygepirone the vehicle was deionized H2O plus a few drops of hydrochloric acid. For acetaminophen (Sigma, A7085) the vehicle was 40% polyethylene glycol 400 (PEG-400), 10% EtOH, 15% Tween 80, and 35% deionized H2O (PETW). Acetaminophen was disolved sequentially in two parts: 1) first into a solution of 80% PEG 400+20% EtOH, and 2) then slowly added to it was an equal volume of 30% Tween 80+70% deionized H2O (sonicated as needed). Each animal received two injections at time zero. Specifically, animals were tested in one of the following 6 treatment conditions (abbreviations used in figures are shown under “Key” below):
Following drug administration, thermal escape latencies are measured at 15, 30, 60, 90 and 120 min (mean of both paws is used for statistical analysis).

mouse = mouse hot plate test (procedure of Eddy, et al.); assay type: in vivo; conditions: 6-hydroxybuspirone to acetaminophen weight ratios of 1:3, 1:10 and 1:30
[1] = hydroxyazapirone alone, 5 mg/kg ip
[2] = acetaminophen alone, 300 mg/kg ip

Compound | time of peak analgesic effect post injection (albino rats; 3-hydroxygepirone alone, 5 mg/kg ip) | analgesic effect of co-administration with acetaminophen compared to either compound given alone (albino rats) | hindpaw thermal escape response/latency compared to vehicle (saline+PETW) (albino rats; [1]) | potentiation of acetaminophen in hot plate test (mouse) | time of peak analgesic effect post injection (albino rats; [2]) | hindpaw thermal escape response/latency compared to vehicle (saline+PETW) (albino rats; [2])
CC1(C)CC(=O)N(CCCCN2CCN(c3ncccn3)CC2)C(=O)C1O (centres unmarked) [3-hydroxygepirone, 4,4-Dimethyl-3-hydroxy-1-[4-[4-(2-pyrimidinyl)-1-piperazinyl]butyl]-2,6-piperidinedione] | 120 min | analgesic enhancing effect | elevated significantly above vehicle |  |  | 
O=C1CC2(CCCC2)C(O)C(=O)N1CCCCN1CCN(c2ncccn2)CC1 (centres unmarked) [6-hydroxybuspirone, 6-Hydroxy-8-[4-[4-(2-pyrimidinyl)-piperazinyl]-butyl]-8-azaspiro[4.5]-7,9-dione] |  | analgesic enhancing effect | elevated significantly above vehicle | potentiation of acetaminophen |  | 
CC(=O)Nc1ccc(O)cc1 [acetaminophen, reference compound] |  |  |  |  | 120 min | elevated significantly above vehicle
